# Structures can show the parent of a compound that is named as a salt. Where two headings read alike, the source gives them in different places.
# Tested on: murine neural precursor cells (neurosphere cultures)
# Test: HTS of LOPAC library against secondary neurosphere cultures, MTT proliferation assay at 3 μM, day 7 (z score, P value)
# Format: cell-based, mouse
# [1] = LOPAC library screen, 3 μM, MTT, neurosphere cultures
# [2] = LOPAC primary screen, neurosphere MTT proliferation, 3 μM, day 7
# [3] = yes = significantly inhibited neurosphere proliferation (P<0.01) in the primary screen
# [4] = yes/no: significantly inhibited neurosphere proliferation (P<0.01) in the primary screen
# [5] = LOPAC library screen at 3 μM, secondary neurosphere cultures, MTT
# [6] = yes/no: significantly inhibited neurosphere proliferation (P<0.01) in primary screen
# [7] = LOPAC screen, neurosphere MTT proliferation, 3 μM, day 7
# [8] = yes/no: significantly inhibited neurosphere proliferation in the primary screen
# [9] = primary LOPAC screen, 3 μM, MTT, neurosphere proliferation
# [10] = LOPAC library screen, 3 μM, MTT, secondary neurosphere cultures, day 7
compound,measurement,setting,value
N=C(NCCC[C@H](N)C(=O)O)N[N+](=O)[O-] [NG-Nitro-L-arginine],Z Score,[1],0.1385
same,Z score,[2],0.139
same,Activity,[3],no
CC(=O)OCC1=C(C(=O)O)N2C(=O)[C@@H](NC(=O)CSc3ccncc3)[C@H]2SC1 [Cephapirin sodium],Z Score,[1],0.6219
same,Z score,[2],0.622
same,Activity,[4],no
COc1[nH]c2ccc(F)cc2c1C(=O)OCC1CCN(CCNS(C)(=O)=O)CC1.NS(=O)(=O)O [GR 125487 sulfamate salt],Z Score,[5],−0.1942
same,Z score,[2],−0.194
same,Activity,[6],no
CN[C@H](CC(=O)O)C(=O)O [N-Methyl-D-aspartic acid],Z Score,,−1.86
same,Z score,[2],−1.860
same,Activity,[3],no
"Cn1c(=O)c2[nH]c(-c3ccccc3)nc2n(C)c1=O [1,3-Dimethyl-8-phenylxanthine]",Z Score,"168 h, 3 µM",0.7518
same,Z score,"168 h, 3 µM",0.752
same,Activity,yes/no: significantly inhibited neurosphere proliferation in primary screen,no
CCn1nc(C(=O)O)c(=O)c2cc3c(cc21)OCO3 [Cinoxacin],Z Score,[5],−1.095
same,Z score,[7],−1.095
same,Activity,[6],no
CC(C(=O)O)c1ccc(CC2CCCC2=O)cc1 (stereo not drawn) [loxoprofen],Z Score,[5],−0.8833
same,Z score,[2],−0.883
same,Activity,[6],no
Clc1ccc2c(c1)C(N1CCNCC1)=Nc1ccccc1O2 [Amoxapine],Z Score,"168 h, 3 µM",−1.041
same,Z score,"168 h, 3 µM",−1.041
same,Activity,[8],no
CCCCCCCCCC[Si](C)(C)CCC(=O)NC(Cc1ccc(C)cc1)c1ccccc1 (stereo not drawn) [Sandoz 58-035],Z Score,[1],0.3325
same,Z score,[9],0.332
same,Activity,[8],no
CN(C)CCOC(c1ccccc1)c1ccccc1 [Diphenhydramine hydrochloride],Z Score,[1],0.8449
same,Z score,[2],0.845
same,Activity,[4],no
CN1CCN(CCCN2c3ccccc3Sc3ccc(Cl)cc32)CC1 [Prochlorperazine dimaleate],Z Score,"168 h, 3 µM",−0.8602
same,Z score,"168 h, 3 µM",−0.860
same,Activity,[4],no
O=C(c1ccc(F)cc1)C1CCN(CCn2c(=O)[nH]c3ccccc3c2=O)CC1 [Ketanserin tartrate],Z Score,"168 h, 3 µM",−3.325
same,Z score,"168 h, 3 µM",−3.325
same,Activity,[4],yes
Cl.NO [Hydroxylamine hydrochloride],Activity,,no
same,Z Score,,1.635
same,Z score,,1.635
Cn1c(=O)c2[nH]c(-c3ccc(S(=O)(=O)O)cc3)nc2n(C)c1=O [8-(p-Sulfophenyl)theophylline],Z Score,"168 h, 3 µM",1.047
same,Z score,"168 h, 3 µM",1.047
same,Activity,[8],no
CN1C(C(=O)Nc2ccccn2)=C(O)c2ccccc2S1(=O)=O [Piroxicam],Z Score,[1],0.2527
same,Z score,[2],0.253
same,Activity,[3],no
CCCN(CCc1ccccc1)C1CCc2c(O)cccc2C1.Cl (stereo not drawn) [(B1)-PPHT hydrochloride],Z Score,,−1.915
CCCN(CCC)C(=O)Cc1c(-c2ccc(Cl)cc2)nc2c(Cl)cc(Cl)cn12 [CB34],Z Score,,−1.081
same,Z score,[7],−1.081
same,Activity,[6],no
N[C@@H](CS(=O)O)C(=O)O [L-Cysteinesulfinic Acid],Z Score,[1],1.458
same,Z score,[7],1.458
same,Activity,[6],no
"CC(N)c1cccc(Cl)c1Cl.Cl (racemic) [(±)-2,3-Dichloro-alpha-methylbenzylamine hydrochloride]",Z score,[7],−2.251
same,Activity,[6],no
C(=C\c1ccccc1)/CN1CCN(C(c2ccccc2)c2ccccc2)CC1 [Cinnarizine],Z Score,[10],−1.375
same,Z score,[7],−1.375
C[C@@H](N)[C@H]1CC[C@H](C(=O)Nc2ccncc2)CC1 [Y-27632 dihydrochloride],Z Score,"168 h, 3 µM",−0.1255
same,Z score,"168 h, 3 µM",−0.125
same,Activity,[6],no
L-Hyoscyamine,Activity,,no
same,Z Score,,−0.661
same,Z score,,−0.661
CC(C)NC[C@@H](O)c1ccc(O)c(O)c1.O=C(O)C(O)C(O)C(=O)O [S(+)-Isoproterenol (+)-bitartrate],Z Score,,−0.2963
(+)-Cyclazocine,Z Score,,0.6116
same,Z score,[7],0.612
same,Activity,[6],no
CC1=C(C(=O)O)N2C(=O)[C@@H](NC(=O)[C@H](N)C3=CCC=CC3)[C@H]2SC1 [Cephradine],Z Score,[1],0.7112
same,Z score,[2],0.711
same,Activity,[4],no
CCC(NC(C)C)C(O)c1ccc(O)c(O)c1.CS(=O)(=O)O (stereo not drawn) [Isotharine mesylate],Z Score,,−0.6392
same,Z score,[2],−0.639
same,Activity,[6],no
CC(C)N(CCC(C(N)=O)(c1ccccc1)c1ccccn1)C(C)C (stereo not drawn) [Disopyramide],Z Score,[10],−4.179
same,Z score,[2],−4.179
same,Activity,[4],yes
CC(C)(C)c1ccc(C(O)CCCN2CCC(C(O)(c3ccccc3)c3ccccc3)CC2)cc1 (stereo not drawn) [Terfenadine],Activity,,no
same,Z Score,[1],0.7553
same,Z score,[9],0.755
